Results: US11970576B2, “Beta-peptido sugar-copolymer” (NANYANG TECHNOLOGICAL UNIVERSITY, priority 2017, dated 2024)
Values after ≈ are worked out from the molar mass of the structure shown. Where a SMILES comes first, the peptide text is derived from it.

Tests used:
[1] = test system: methicillin-resistant S. aureus (BAA-40); assay type: cell-based
Description: (§1) Antimicrobial activity of block-like copolymers PDGu(x)-b-PBLK(y) against a panel of bacteria including both Gram-positive (S. aureus and B. subtilis) and Gram-negative (E. coli) in terms of minimal inhibition concentration (MIC) were tested. […] The activity was decreased with the increase of sugar ratio. This is reasonable when considering the killing domains became less.

[2] = test system: human red blood cells; test: Erythrocyte compatibility assay (hemolysis)
Description: Toxicity towards mammalian cells was another vital factor for bio-applications. […] Erythrocyte compatibility assay calculating the lysis of human red blood cells (HC10, concentration of polymers causing 10% human red blood cells lysed) was performed to characterize the in vitro biocompatibility.

[3] = test system: S. aureus (ATCC 29213); assay type: cell-based
Description: as §1

[4] = test system: E. coli (ATCC 8739); assay type: cell-based
Description: as §1

[5] = test system: MRSA USA300; test: In vivo murine excision wound model; set-up: species or system Staphylococcus aureus
Text: Staphylococcus aureus is the most common cause for skin and soft tissue infections (SSTIs). Among those, up to three quarter are caused by community-associated MRSA (CA-MRSA). MRSA USA300 is a significant CA-MRSA pathogen in the US. According to Centers for Disease Control and Prevention of US, 212 out of 218 MRSA isolates were type USA300. To further test the in vivo efficacy of PDGu(10)-b-PBLK(10) against the clinically significant pathogen MRSA USA300, a mice wound excision model was adopted using 8 weeks female C57BL6 mice. […] This could be attributed to the excellent antibacterial efficacy of the β-peptido sugar-copolymer in vivo.
The in vivo efficacy of PDGu(10)-b-PBLK(10) was further tested against MRSA USA 300 with a murine excision wound model using two infection durations with treatments applied either 4 hour or 24 hour post infection. For treatment applied 4 hour post infection, the β-peptido sugar-copolymer achieves a log reduction of 4.1 (FIG. 8a), which is slightly better than vancomycin, which has a log reduction of 3.7. […] In contrast, vancomycin treatment only achieves 2.0 log reduction of the bacteria burden at the wound site (p≤0.01). The excellent in vivo antibacterial efficacy of PDGu(10)-b-PBLK(10) may be correlated to its outstanding in vitro killing kinetics and anti-biofilm bacteria property.
Female C57BL6 mice (Invivos, Singapore) aged 8 weeks were used for excision wound model to evaluate in vivo antimicrobial efficacy of the β-peptido sugar-copolymer. All mice were housed on a 12 hour light-dark cycle at room temperature for one week prior to the experiment. Mice (n=7 per group) were anesthetized using isoflurane and hair from the back was removed with a shaver and sterile scalpel blade. The shaved area was further sterilized using 70% ethanol and a 5 mm diameter excision wound was created using a biopsy punch. In t=4 hour post infection model, 2.5 μL MRSA USA300 in PBS suspension (5×10^5 CFU/mL) was added to wound site and covered by Tegaderm (3M™) to protect from contamination. […]

Compound	MIC MRSA [1]	HC10 RBC (concentration causing 10% human red blood cells lysed) [2]	MIC SA 29213 [3]	MIC E. coli [4]	in vivo activity compared with the β-peptido sugar-copolymer ([5]; mice wound excision model, MRSA USA300)	log reduction of MRSA USA300 ([5]; treatment applied 4 hour post infection, single dose 2.5 mg/kg (FIG. 8a))	log reduction of total bacteria count ([5]; treatment initiated 24 hour post infection, three times with 4-hour interval, 2.5 mg/kg (FIG. 8b))
CC[C@H](C)[C@H](NC(=O)[C@H](CCCCN)NC(=O)[C@H](CCC(=O)O)NC(=O)[C@H](CCCCN)NC(=O)[C@H](CO)NC(=O)[C@H](CCCCN)NC(=O)[C@H](CCCNC(=N)N)NC(=O)[C@H](Cc1ccccc1)NC(=O)[C@H](Cc1ccccc1)NC(=O)[C@H](CC(=O)O)NC(=O)CNC(=O)[C@H](CC(C)C)NC(=O)[C@@H](N)CC(C)C)C(=O)NCC(=O)N[C@@H](CCCCN)C(=O)N[C@@H](CCC(=O)O)C(=O)N[C@@H](Cc1ccccc1)C(=O)N[C@@H](CCCCN)C(=O)N[C@@H](CCCNC(=N)N)C(=O)N[C@H](C(=O)N[C@H](C(=O)N[C@@H](CCC(N)=O)C(=O)N[C@@H](CCCNC(=N)N)C(=O)N[C@H](C(=O)N[C@@H](CCCCN)C(=O)N[C@@H](CC(=O)O)C(=O)N[C@@H](Cc1ccccc1)C(=O)N[C@@H](CC(C)C)C(=O)N[C@@H](CCCNC(=N)N)C(=O)N[C@@H](CC(N)=O)C(=O)N[C@@H](CC(C)C)C(=O)N[C@H](C(=O)N1CCC[C@H]1C(=O)N[C@@H](CCCNC(=N)N)C(=O)N[C@H](C(=O)N[C@@H](CCC(=O)O)C(=O)N[C@@H](CO)C(=O)O)[C@@H](C)O)C(C)C)[C@@H](C)CC)C(C)C)[C@@H](C)CC [LL37]	>512 µg/mL						
Polymyxin B	64 µg/mL	>2500 µg/mL	32 µg/mL	2 µg/mL			
CC[C@H](C)[C@H](NC(=O)CN)C(=O)NCC(=O)N[C@@H](CCCCN)C(=O)N[C@@H](Cc1ccccc1)C(=O)N[C@@H](CC(C)C)C(=O)N[C@@H](Cc1c[nH]cn1)C(=O)N[C@@H](CO)C(=O)N[C@@H](C)C(=O)N[C@@H](CCCCN)C(=O)N[C@@H](CCCCN)C(=O)N[C@@H](Cc1ccccc1)C(=O)NCC(=O)N[C@@H](CCCCN)C(=O)N[C@@H](C)C(=O)N[C@@H](Cc1ccccc1)C(=O)N[C@H](C(=O)NCC(=O)N[C@@H](CCC(=O)O)C(=O)N[C@H](C(=O)N[C@@H](CCSC)C(=O)N[C@@H](CC(N)=O)C(=O)N[C@@H](CO)C(=O)O)[C@@H](C)CC)C(C)C [Magainin 2] (H-GIGKFLHSAKKFGKAFVGEIMNS-OH)	>512 µg/mL	>500 µg/mL	>512 µg/mL	64 µg/mL (≈ 25.9 µM)			
CN[C@H](CC(C)C)C(=O)N[C@H]1C(=O)N[C@@H](CC(N)=O)C(=O)N[C@H]2C(=O)N[C@H]3C(=O)N[C@H](C(=O)N[C@H](C(=O)O)c4cc(O)cc(O)c4-c4cc3ccc4O)[C@H](O)c3ccc(c(Cl)c3)Oc3cc2cc(c3O[C@@H]2O[C@H](CO)[C@@H](O)[C@H](O)[C@H]2O[C@H]2C[C@](C)(N)[C@H](O)[C@H](C)O2)Oc2ccc(cc2Cl)[C@H]1O [vancomycin]					does not show superior activity	3.7 log	2.0 log
CC[C@H](C)[C@H](NC(=O)CN)C(=O)NCC(=O)N[C@@H](C)C(=O)N[C@H](C(=O)N[C@@H](CC(C)C)C(=O)N[C@@H](CCCCN)C(=O)N[C@H](C(=O)N[C@@H](CC(C)C)C(=O)N[C@H](C(=O)N[C@H](C(=O)NCC(=O)N[C@@H](CC(C)C)C(=O)N1CCC[C@H]1C(=O)N[C@@H](C)C(=O)N[C@@H](CC(C)C)C(=O)N[C@H](C(=O)N[C@@H](CO)C(=O)N[C@@H](Cc1c[nH]c2ccccc12)C(=O)N[C@H](C(=O)N[C@@H](CCCCN)C(=O)N[C@@H](CCCNC(=N)N)C(=O)N[C@@H](CCCCN)C(=O)N[C@@H](CCCNC(=N)N)C(=O)N[C@@H](CCC(N)=O)C(=O)N[C@@H](CCC(N)=O)C(N)=O)[C@@H](C)CC)[C@@H](C)CC)[C@@H](C)O)[C@@H](C)O)C(C)C)C(C)C [Melittin]		8 µg/mL					
